Source: patent US20180311217A1, “METHODS OF TREATMENT AND COMPOSITIONS WITH XANTHINE OXIDASE INHIBITORS” (Takeda Pharmaceuticals U.S.A., Inc., priority 2013, published 2018)

Legend:
[1] = tested on: hyperuricemic gout subjects with moderate to severe renal impairment; assay: Example 1 study: eGFR using the MDRD formula; assay type: in vivo, human; conditions: for change in eGFR over time: prior use of ACEi; for change in eGFR levels over time: prior use of ARB; for change in mean eGFR levels: subjects with moderate renal impairment
Protocol: Following the Study Day 1 Visit, subjects returned to the clinic for study visits at Day 14, Months 1, 3, 6, 9 and for a final visit at Month 12/ET Visit. […] Gout flare assessments were collected at each visit. Estimated GFR by Modification of Diet in Renal Disease (MDRD) calculation was performed by the Central Laboratory at all visits. Blood pressure (clinic with standardized instruments) was measured throughout the study. Adverse events, electrocardiograms (ECGs), clinical laboratory tests, and vital signs were collected at each visit.
The secondary efficacy variables for this study included change from baseline to Month 12 in eGFR using the MDRD formula; and percentage of subjects with sUA<6.0 mg/dL at Month 12.
An ANCOVA analysis similar to the primary analysis was used for analysis of eGFR. Subgroup analyses were also summarized for eGFR as for the primary endpoint.

[2] = oral administration; cited from earlier work

## Cc1nc(-c2ccc(OCC(C)C)c(C#N)c2)sc1C(=O)O [Febuxostat, 2-[3-cyano-4-(2-methylpropoxy)phenyl]-4-methylthiazole-5-carboxylic acid]
[1]; 30 mg BID, Day 14
  eGFR using MDRD formula, Change from Baseline: −0.99 mL/min/1.73 m^2
  eGFR using MDRD formula, Mean (SD): 33.25 (8.042) mL/min/1.73 m^2
[1]; 30 mg BID, Month 1
  eGFR using MDRD formula, Change from Baseline: −1.48 mL/min/1.73 m^2
  eGFR using MDRD formula, Mean (SD): 32.99 (8.305) mL/min/1.73 m^2
[1]; 30 mg BID, Month 3
  eGFR using MDRD formula, Change from Baseline: −0.72 mL/min/1.73 m^2
  eGFR using MDRD formula, Mean (SD): 33.52 (9.005) mL/min/1.73 m^2
[1]; 30 mg BID, Month 6
  eGFR Change from Baseline, LS mean (SE): 0.03 (0.955) mL/min/1.73 m^2
  eGFR Change from Baseline, LS mean difference (SE) from placebo group: 1.74 (1.374) mL/min/1.73 m^2
  eGFR using MDRD formula, Change from Baseline: −0.06 mL/min/1.73 m^2
  eGFR using MDRD formula, Mean (SD): 34.18 (8.004) mL/min/1.73 m^2
[1]; 30 mg BID, Month 9
  eGFR using MDRD formula, Change from Baseline: −0.91 mL/min/1.73 m^2
  eGFR using MDRD formula, Mean (SD): 33.33 (9.468) mL/min/1.73 m^2
[1]; 30 mg BID, Month 12
  eGFR Change from Baseline, LS mean (SE): 0.33 (1.172) mL/min/1.73 m^2
  eGFR Change from Baseline, LS mean difference (SE) from placebo group: 2.38 (1.687) mL/min/1.73 m^2
  eGFR using MDRD formula, Change from Baseline: 0.32 mL/min/1.73 m^2
  eGFR using MDRD formula, Mean (SD): 34.56 (9.382) mL/min/1.73 m^2
  change in mean eGFR levels: small improvement
[1]; 30 mg BID, Month 12, listed as febuxostat
  eGFR Change from Baseline, LS mean (SE): 0.33 mL/min/1.73 m^2
[1]; 30 mg BID
  change in eGFR over time: slight improvements
  change in eGFR levels over time: modest improvements
[1]; 30 mg BID, sUA of 9.0 to <10.0 mg/dL at Baseline
  change in eGFR over time compared with placebo: small favorable trend
[1]; 30 mg BID, sUA≥10.0 mg/dL at Baseline
  change in eGFR over time compared with placebo: small trend was apparent
[1]; 30 mg BID, serum creatinine 2.0 to <2.5 mg/dL at Baseline
  change in eGFR over time compared with placebo: small favorable trend
[1]; 40/80 mg QD, Day 14
  eGFR using MDRD formula, Change from Baseline: −0.52 mL/min/1.73 m^2
  eGFR using MDRD formula, Mean (SD): 33.87 (10.259) mL/min/1.73 m^2
[1]; 40/80 mg QD, Month 1
  eGFR using MDRD formula, Change from Baseline: −0.29 mL/min/1.73 m^2
  eGFR using MDRD formula, Mean (SD): 33.91 (10.482) mL/min/1.73 m^2
[1]; 40/80 mg QD, Month 3
  eGFR using MDRD formula, Change from Baseline: 0.14 mL/min/1.73 m^2
  eGFR using MDRD formula, Mean (SD): 34.34 (10.474) mL/min/1.73 m^2
[1]; 40/80 mg QD, Month 6
  eGFR Change from Baseline, LS mean (SE): 0.04 (0.969) mL/min/1.73 m^2
  eGFR Change from Baseline, LS mean difference (SE) from placebo group: 1.75 (1.383) mL/min/1.73 m^2
  eGFR using MDRD formula, Change from Baseline: −0.03 mL/min/1.73 m^2
  eGFR using MDRD formula, Mean (SD): 34.18 (11.067) mL/min/1.73 m^2
[1]; 40/80 mg QD, Month 9
  eGFR using MDRD formula, Change from Baseline: 1.18 mL/min/1.73 m^2
  eGFR using MDRD formula, Mean (SD): 35.39 (10.930) mL/min/1.73 m^2
[1]; 40/80 mg QD, Month 12
  eGFR Change from Baseline, LS mean (SE): −0.86 (0.190) mL/min/1.73 m^2
  eGFR Change from Baseline, LS mean difference (SE) from placebo group: 1.19 (1.698) mL/min/1.73 m^2
  eGFR using MDRD formula, Change from Baseline: −0.82 mL/min/1.73 m^2
  eGFR using MDRD formula, Mean (SD): 33.38 (11.949) mL/min/1.73 m^2
[1]; 40/80 mg QD, Month 12, listed as febuxostat
  eGFR Change from Baseline, LS mean (SE): −0.086 mL/min/1.73 m^2
[1]; 40/80 mg QD
  change in eGFR over time: slight improvements
[1]; 40/80 mg QD, sUA of 9.0 to <10.0 mg/dL at Baseline
  change in eGFR over time compared with placebo: small favorable trend
[1]; 40/80 mg QD, serum creatinine 2.0 to <2.5 mg/dL at Baseline
  change in eGFR over time compared with placebo: small favorable trend
[1]; 40/80 mg
  change in eGFR levels over time: moderate to large decreases
[1]; 40/80 mg, Month 12
  change in mean eGFR levels: small decreases
[2]
  orally administered febuxostat eliminated in the urine as unchanged drug: < 4%
